Values quoted from earlier work in US4305927A, “Method for the management of intraocular pressure” (ALZA Corporation, priority 1980, dated 1981).

Test system: carbonic anhydrase

## CC(=O)Nc1nnc(S(N)(=O)=O)s1 [acetazolamide, 5-acetamido-1,3,4-thiadiazole-2-sulfonamide]
  action on carbonic anhydrase: enzyme inhibitor that acts on carbonic anhydrase
